Measurements as given in patent publication US8552018B2, “Substituted tricyclic compounds as protein kinase inhibitors” (Arizona Board of Regents on behalf of the University of …, priority 2003, dated 2013).

Tests used:
Aurora-A = Aurora-A (Homo sapiens, UniProt O14965); details: 0.1 μM ATP, 30 μM Kemptide
Experimental: [drawing 74] enzyme assays were performed using the Kinase-Glo™ Luminescent Kinase Assay from Promega Corporation (Madison, Wis.). The following conditions were used: [table] Enzymatic reactions were allowed to progress for 2 hours at 30° C., then assayed for kinase activity according to manufacturer protocol.

CDK1 = CDK1 (Homo sapiens, UniProt P06493); assay: Kinase-Glo Luminescent Kinase Assay (Examples 27, 33); format: biochemical
Experimental: (§1) The following conditions were used:
(§2) The protein serine-threonine kinases cAMP PK, MKK6 and Cdk1 were tested alongside Aurora-2 kinase to evaluate the activity of compound (II-2-6) against these protein kinases. Briefly, in this assay kinase activity is determined by quantifying the amount of ATP remaining in solution following the kinase reaction by measuring the relative light units (RLU) produced by luciferase using a luminometer. Percent activity was determined for individual compounds by comparing luminometer readings of drug-treated reactions to controls containing no drug (RLUNo Inhib) and no Aurora-2 enzyme (RLUNo Kinase) in the following equation: […]

MKK6 = MKK6 (Homo sapiens, UniProt P52564); assay: as above; format: biochemical
Experimental: as §1, §2

cAMP-PK = cAMP-PK (Homo sapiens, UniProt P17612); assay: as above; format: biochemical
Experimental: as §1, §2

Chain of MKK6 (P52564 whole entry, species assumed): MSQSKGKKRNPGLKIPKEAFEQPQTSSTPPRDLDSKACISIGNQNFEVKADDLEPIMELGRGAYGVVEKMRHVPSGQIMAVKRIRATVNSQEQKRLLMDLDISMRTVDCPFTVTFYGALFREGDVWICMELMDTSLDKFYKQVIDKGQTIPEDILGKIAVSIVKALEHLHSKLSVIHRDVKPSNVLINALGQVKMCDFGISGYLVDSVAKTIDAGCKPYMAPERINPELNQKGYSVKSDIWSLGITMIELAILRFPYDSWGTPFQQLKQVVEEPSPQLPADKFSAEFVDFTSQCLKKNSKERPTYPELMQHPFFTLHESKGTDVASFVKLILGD
Chain of CDK1 (P06493 whole entry, species assumed): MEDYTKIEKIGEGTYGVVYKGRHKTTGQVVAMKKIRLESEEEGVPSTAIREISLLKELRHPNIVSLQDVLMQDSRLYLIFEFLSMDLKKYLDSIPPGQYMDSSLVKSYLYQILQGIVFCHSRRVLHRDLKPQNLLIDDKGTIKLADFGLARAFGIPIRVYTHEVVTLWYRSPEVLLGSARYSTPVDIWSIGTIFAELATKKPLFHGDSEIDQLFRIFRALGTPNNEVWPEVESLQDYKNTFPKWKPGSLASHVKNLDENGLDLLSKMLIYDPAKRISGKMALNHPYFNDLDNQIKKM
Chain of CDK1 (P14635 whole entry partner, species assumed): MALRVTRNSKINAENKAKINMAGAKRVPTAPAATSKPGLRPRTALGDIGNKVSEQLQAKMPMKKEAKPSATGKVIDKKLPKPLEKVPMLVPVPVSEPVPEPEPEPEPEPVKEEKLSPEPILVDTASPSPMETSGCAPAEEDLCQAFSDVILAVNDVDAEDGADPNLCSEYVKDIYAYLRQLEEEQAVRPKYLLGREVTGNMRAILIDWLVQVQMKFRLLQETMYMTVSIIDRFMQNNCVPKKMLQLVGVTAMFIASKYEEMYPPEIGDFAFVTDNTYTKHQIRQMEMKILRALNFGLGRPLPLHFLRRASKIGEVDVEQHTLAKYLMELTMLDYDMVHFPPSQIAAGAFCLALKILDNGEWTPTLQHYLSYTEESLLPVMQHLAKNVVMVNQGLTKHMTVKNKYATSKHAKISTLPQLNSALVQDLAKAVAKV
Chain of Aurora-A (O14965 whole entry): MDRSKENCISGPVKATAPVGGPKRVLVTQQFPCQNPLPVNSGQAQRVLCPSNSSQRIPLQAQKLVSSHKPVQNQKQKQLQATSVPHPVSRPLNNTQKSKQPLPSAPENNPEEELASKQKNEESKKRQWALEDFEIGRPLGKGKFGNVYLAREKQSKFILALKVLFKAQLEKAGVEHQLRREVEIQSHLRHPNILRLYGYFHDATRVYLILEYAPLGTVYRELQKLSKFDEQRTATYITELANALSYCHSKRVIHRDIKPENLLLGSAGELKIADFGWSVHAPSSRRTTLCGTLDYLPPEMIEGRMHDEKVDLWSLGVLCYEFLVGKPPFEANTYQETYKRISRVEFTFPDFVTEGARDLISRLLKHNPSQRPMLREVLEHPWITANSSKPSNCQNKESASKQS

Compound: COc1cc2[nH]c3ncnc(N4CCN(C(=S)Nc5ccc(S(=O)(=O)Nc6ncccn6)cc5)CC4)c3c2cc1OC [HPK62, 4-(6,7-Dimethoxy-9H-1,3,9-triaza-fluoren-4-yl)-piperazine-1-carbothioic acid [4-(pyrimidin-2-ylsulfamoyl)-phenyl]-amide]
- IC50 (Aurora-A): 0.9 µM
- IC50 (CDK1; CDK1, 0.1 μM ATP, 30 μM Kemptide): 22.3 µM
- kinase inhibitory activity (in words) (CDK1; Cdk1, FIG. 27): inhibitory activity
- IC50 (MKK6; MKK6, 0.1 μM ATP, 30 μM Kemptide): 6.2 µM
- kinase inhibitory activity (in words) (MKK6; MKK6, FIG. 27): inhibitory activity
- kinase inhibitory activity (in words) (cAMP-PK; cAMP PK, FIG. 27): inhibitory activity
- IC50 (cAMP-PK; cAMP-PK, 0.1 μM ATP, 30 μM Kemptide): > 100 µM
